c1ccc2[nH]c(-c3cscn3)nc2c1
solubility (mole fraction)
Settings	283.15 K	288.15 K	293.15 K	298.15 K	303.15 K	308.15 K	313.15 K	318.15 K	323.15 K
in 2-butanone	0.0012	0.00137	0.00151	0.00161	0.00186	0.00209	0.00223	0.00241	0.0025
in acetone	0.000605	0.000711	0.000796	0.000936	0.00105	0.00119	0.00139	0.00153	0.00173
in acetonitrile	0.000112	0.00012	0.000145	0.000149	0.000209	0.000253	0.000309	0.000339	0.000403
in ethanol	0.00128	0.0014	0.00153	0.00163	0.00192	0.00213	0.00234	0.00274	0.00295
in ethyl acetate	0.000435	0.000523	0.000638	0.000704	0.000825	0.000956	0.00109	0.00116	0.00127
in isobutanol	0.000905	0.00104	0.00123	0.00144	0.00176	0.00202	0.0023	0.00258	0.00294
in isopropanol	0.000699	0.000762	0.00089	0.000954	0.00118	0.00136	0.0016	0.00182	0.00198
in methanol	0.00133	0.00142	0.00158	0.00167	0.00211	0.00219	0.00244	0.00279	0.00301
in methyl acetate	0.000378	0.000515	0.000608	0.000636	0.000758	0.000822	0.000899	0.000953	0.00117
in n-butanol	0.0016	0.0018	0.00193	0.0022	0.00266	0.0029	0.00337	0.00371	0.00416
in n-butyl acetate	0.000445	0.000544	0.000646	0.000724	0.000881	0.00098	0.00114	0.00122	0.00136
in n-propanol	0.00137	0.00148	0.00173	0.00181	0.00217	0.00246	0.00274	0.00303	0.00347
